According to PubChem BioAssay (NCI):
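Interpolation was linear, between the two tested concentrations surrounding the appropriate level; five concentrations were tested over 48 hours in 96-well plates. TGI is the concentration that stops growth completely.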

Experiments:
Assay in all cases: growth of human tumour cells (NCI), 48 h
BT-549 breast = test system: BT-549 breast
CAKI-1 renal = test system: CAKI-1 renal
CCRF-CEM leukemia = test system: CCRF-CEM leukemia
COLO 205 colon = test system: COLO 205 colon
HCT-116 colon = test system: HCT-116 colon
HCT-15 colon = test system: HCT-15 colon
MCF7 breast = test system: MCF7 breast
NCI-H522 lung = test system: NCI-H522 lung
NCI/ADR-RES ovarian = test system: NCI/ADR-RES ovarian
PC-3 prostate = test system: PC-3 prostate
RXF 393 renal = test system: RXF 393 renal
SF-539 CNS = test system: SF-539 CNS
SK-OV-3 ovarian = test system: SK-OV-3 ovarian
SNB-75 CNS = test system: SNB-75 CNS
SW-620 colon = test system: SW-620 colon
T-47D breast = test system: T-47D breast
U251 CNS = test system: U251 CNS

Compound: CCOC(=O)/C=C(/C(=O)OCC)n1cc(C)c(=O)[nH]c1=O
- TGI (BT-549 breast): 22.8 µM
- TGI (CAKI-1 renal): 2.57 µM
- TGI (CCRF-CEM leukemia): 4.61 µM
- TGI (COLO 205 colon): 4.07 µM
- TGI (HCT-116 colon): 5.74 µM
- TGI (HCT-15 colon): 4.92 µM
- TGI (MCF7 breast): 12.7 µM
- TGI (NCI-H522 lung): 2.14 µM
- TGI (NCI/ADR-RES ovarian): 33.7 µM
- TGI (PC-3 prostate): 20.6 µM
- TGI (RXF 393 renal): 4.52 µM
- TGI (SF-539 CNS): 27.3 µM
- TGI (SK-OV-3 ovarian): 32.4 µM
- TGI (SNB-75 CNS): 23.7 µM
- TGI (SW-620 colon): 4.84 µM
- TGI (T-47D breast): 17.5 µM
- TGI (U251 CNS): 18.8 µM

Compound: O=C(O)C(C(F)(F)F)C(F)(F)F (tested in a mixture with another compound)
- TGI (BT-549 breast): > 100 µM
- TGI (CAKI-1 renal): > 100 µM
- TGI (CCRF-CEM leukemia): > 100 µM
- TGI (COLO 205 colon): > 100 µM
- TGI (HCT-116 colon): > 100 µM
- TGI (HCT-15 colon): > 100 µM
- TGI (MCF7 breast): > 100 µM
- TGI (NCI-H522 lung): > 100 µM
- TGI (NCI/ADR-RES ovarian): > 100 µM
- TGI (PC-3 prostate): > 100 µM
- TGI (RXF 393 renal): > 100 µM
- TGI (SF-539 CNS): > 100 µM
- TGI (SK-OV-3 ovarian): > 100 µM
- TGI (SNB-75 CNS): > 100 µM
- TGI (SW-620 colon): > 100 µM
- TGI (T-47D breast): > 100 µM
- TGI (U251 CNS): > 100 µM

Compound: O=C(Cc1ccccc1)Nc1nc2ccc(Cl)cc2c2nc(-c3ccco3)nn12
- TGI (BT-549 breast): > 100 µM
- TGI (CAKI-1 renal): > 100 µM
- TGI (CCRF-CEM leukemia): > 100 µM
- TGI (COLO 205 colon): > 100 µM
- TGI (HCT-116 colon): > 100 µM
- TGI (HCT-15 colon): > 100 µM
- TGI (MCF7 breast): > 100 µM
- TGI (NCI-H522 lung): > 100 µM
- TGI (NCI/ADR-RES ovarian): > 100 µM
- TGI (PC-3 prostate): > 100 µM
- TGI (RXF 393 renal): 59.7 µM
- TGI (SF-539 CNS): > 60.5 µM
- TGI (SK-OV-3 ovarian): > 100 µM
- TGI (SNB-75 CNS): > 54.2 µM
- TGI (SW-620 colon): > 100 µM
- TGI (T-47D breast): > 100 µM
- TGI (U251 CNS): > 100 µM

Compound: Oc1c(O)c(Cc2ccccc2)c(Cc2ccccc2)c(Cc2ccccc2)c1Cc1ccccc1
- TGI (BT-549 breast): > 10 µM
- TGI (CAKI-1 renal): > 10 µM
- TGI (CCRF-CEM leukemia): > 10 µM
- TGI (COLO 205 colon): > 10 µM
- TGI (HCT-116 colon): > 10 µM
- TGI (HCT-15 colon): > 10 µM
- TGI (MCF7 breast): > 10 µM
- TGI (NCI-H522 lung): > 10 µM
- TGI (NCI/ADR-RES ovarian): > 10 µM
- TGI (PC-3 prostate): > 10 µM
- TGI (RXF 393 renal): > 10 µM
- TGI (SF-539 CNS): > 10 µM
- TGI (SK-OV-3 ovarian): > 10 µM
- TGI (SNB-75 CNS): > 10 µM
- TGI (SW-620 colon): > 10 µM
- TGI (T-47D breast): > 10 µM
- TGI (U251 CNS): > 10 µM

Compound: O=C1CCCc2cc3c(cc21)CC1(C3)Cc2cc3c(cc2C1)C(=O)CCC3
- TGI (BT-549 breast): 90.2 µM
- TGI (CAKI-1 renal): > 88 µM
- TGI (CCRF-CEM leukemia): > 34.2 µM
- TGI (COLO 205 colon): 5.06 µM
- TGI (HCT-116 colon): 37.9 µM
- TGI (HCT-15 colon): > 59.6 µM
- TGI (MCF7 breast): 15.3 µM
- TGI (NCI-H522 lung): 6.15 µM
- TGI (NCI/ADR-RES ovarian): 6.65 µM
- TGI (PC-3 prostate): > 100 µM
- TGI (RXF 393 renal): > 29.3 µM
- TGI (SF-539 CNS): 5.85 µM
- TGI (SK-OV-3 ovarian): > 44.7 µM
- TGI (SNB-75 CNS): > 100 µM
- TGI (SW-620 colon): > 100 µM
- TGI (T-47D breast): > 100 µM
- TGI (U251 CNS): 36.5 µM

Compound: NC(=S)NN=C1Cc2ccccc2C1
- TGI (BT-549 breast): > 100 µM
- TGI (CAKI-1 renal): > 100 µM
- TGI (CCRF-CEM leukemia): > 100 µM
- TGI (COLO 205 colon): > 100 µM
- TGI (HCT-116 colon): > 100 µM
- TGI (HCT-15 colon): > 100 µM
- TGI (MCF7 breast): > 100 µM
- TGI (NCI-H522 lung): > 100 µM
- TGI (NCI/ADR-RES ovarian): > 100 µM
- TGI (PC-3 prostate): > 100 µM
- TGI (RXF 393 renal): > 100 µM
- TGI (SF-539 CNS): > 100 µM
- TGI (SK-OV-3 ovarian): > 100 µM
- TGI (SNB-75 CNS): > 100 µM
- TGI (SW-620 colon): > 100 µM
- TGI (T-47D breast): > 100 µM
- TGI (U251 CNS): > 100 µM
